Results on 53 molecules are retold here after PubChem BioAssay AID488800 (Sanford-Burnham Center for Chemical Genomics, 2010).

For orientation: IC50 means the point on the concentration scale where inhibition reaches its midpoint.

The structures appear in SMILES notation. Calls of active or inactive are those of the source. The limit is not given here; nearly all actives have IC50 up to about 10 µM. Where only a bound is given, the exact number is not on record here.

The target in this assay is yeast expressing human caspase-1/ASC, counter-screen read-out. Nature of the assay: interleukin-1beta converting enzyme-PYCARD signal blockade in yeast, concentration-response testing, counterassay for cryopyrin inhibitor project (AID 488800).

For the molecule `CN(CCOc1ccccc1)c1ccc(S(=O)(=O)N2CCCCC2)cn1`, the IC50 was 5.1 µM.

With `CCCCCC(=O)N1CCN(CCN=CC2=C(O)CC(c3ccco3)CC2=O)CC1` (stereo not drawn), the IC50 is 8.62 µM.

Regarding `CCSc1nsc(NC(=O)Nc2cccc(F)c2)n1`, the 50% inhibitory concentration (IC50) was 1.22 µM.

In the case of `O=C(Nc1ccc(Cl)cc1)Nc1ccc(Cl)c(Cl)c1`, the 50% inhibitory concentration (IC50) is 0.805 µM.

In the case of `Cc1csc2nc(O)c(C(=O)NCCC3=CCCCC3)c(=O)n12`, the IC50 was 2.33 µM.

As for `Oc1c(/C=N/c2ccccn2)sc2ccccc12`, the IC50 was 3.8 µM.

Take `CCN(CC)c1ccc2nc3ccccc3[n+](CC)c2c1`: the IC50 is 6.23 µM.

As to `COc1c(OC(C)=O)c(=O)n2c3ccccc3c3ccnc1c32`, the IC50 was 0.665 µM.

In the case of `O=c1cc(-c2ccccc2Cl)oc2ccc([N+](=O)[O-])c(O)c12`, the 50% inhibitory concentration (IC50) is 1.89 µM.

As to `O=C(NCCCc1ccccc1)c1c(O)nc2sccn2c1=O`, the IC50 is 2.42 µM.

On to `CCCCCCCCCn1c2c(c(=N)c3c1CCC3)CCC2`, for which the half-inhibitory concentration (IC50) was 6.26 µM.

As to `Cc1onc(-c2ccccc2Cl)c1C(=O)N1C=CC(C(F)(F)F)=NCC1`, the IC50 was 6.51 µM.

On to `COc1ccc(CNC(=O)c2c(C)oc3c2C(=O)c2ccccc2C3=O)cc1`, for which the IC50 is 3.11 µM.

For `O=C(NC(=S)NNC(=O)c1ccccc1O)c1ccc(F)cc1`, the half-maximal inhibitory concentration (IC50) is 1.82 µM.

Consider `CCC1Nc2ncnc(N3CCN(c4ccccn4)CC3)c2N(Cc2ccc(Cl)cc2)C1=O` (stereo not drawn), for which the IC50 is 3.32 µM.

`c1ccc(C2Nc3ccccc3C3OCCCC23)cc1` (stereo not drawn): the IC50 was 0.881 µM.

With `O=C(Nc1cccc(Cl)c1)c1cc(N=Nc2ccc([N+](=O)[O-])cc2Cl)ccc1O`, the 50% inhibitory concentration (IC50) was 0.566 µM.

For the molecule `C[C@@H]1C[C@@H]2O[C@H]2/C=C\C=C\C(=O)Cc2c(Cl)c(O)cc(O)c2C(=O)O1`, the half-maximal inhibitory concentration (IC50) is 5.66 µM.

Regarding `COc1ccc(NC(=O)C#Cc2ccccc2)cc1`, the half-inhibitory concentration (IC50) is 1.44 µM.

With `O=C(Nc1cccc(Cl)c1)c1cnn2cccnc12`, the IC50 was 4.35 µM.

Consider `CCOC(=O)N1C(=O)C2(CCCCC2)N(c2ccccc2Cl)C1=S`, for which the half-inhibitory concentration (IC50) is 10.6 µM.

`CCN1/C(=C/C=C/c2oc3ccc(-c4ccccc4)cc3[n+]2CC)Oc2ccc(-c3ccccc3)cc21`: the IC50 is 8.93 µM.

Turning to `CC(C)NC(=O)c1c(O)c2ccccc2[nH]c1=O`, the half-inhibitory concentration (IC50) was 1.19 µM.

For the molecule `O=C(NNC(=S)NC(=O)c1ccc(Br)cc1)c1ccc([N+](=O)[O-])cc1`, the IC50 is > 100 µM (inactive).

For `CC(N)C(=O)OC(C)(C)Cc1ccc(Cl)cc1` (stereo not drawn), the IC50 was 4.3 µM.

In the case of `O=C(Nc1cccc(Br)c1)c1cc2ccccc2o1`, the IC50 was 3.37 µM.

With `CCCOc1ccc(C(=O)NNC(=S)NC(=O)c2cccs2)cc1`, the IC50 was 2.93 µM.

Consider `O=c1c2cc(Br)ccc2nc(-c2ccc([N+](=O)[O-])cc2)n1O`, for which the IC50 is 2.39 µM.

Consider `C=CCc1c(C)nc(C)nc1N/N=C/c1ccccc1O`, for which the IC50 is 9.37 µM.

Turning to `CCOC(=O)c1ccc2c(c1)nc(COc1ccc(OC)cc1)n2CC`, the IC50 is 9.83 µM.

In the case of `Cc1ccc(NC(=O)c2nc(S(=O)(=O)Cc3ccccc3)ncc2Cl)cc1`, the IC50 was 1.67 µM.

As to `COc1cccc(NC(=O)c2ccccc2)c1`, the concentration for half-maximal inhibition (IC50) was 4.54 µM.

For the molecule `Brc1ccc(-n2cnc(-c3ccccc3)c2)cc1`, the IC50 was 10.1 µM.

`CCCCCCCCn1c2c(c(=N)c3ccccc31)CCC2`: the IC50 is 8.75 µM.

Turning to `Cn1c(=O)c(C(=O)Nc2ncccn2)c(O)c2ccccc21`, the half-inhibitory concentration (IC50) was 3.18 µM.

Regarding `CC(=O)Oc1c(I)cc(I)cc1C(=O)Nc1ccc(Cl)cc1`, the IC50 is 0.813 µM.

Regarding `CN(CC(=O)N1CCc2ccccc2C1)c1ccccc1`, the IC50 is 2.22 µM.

With `Nc1ccc(Oc2cc(N)cc(Oc3ccccc3)c2)cc1`, the IC50 was 4.58 µM.

`CCC1Nc2ncnc(N3CCN(c4ccccn4)CC3)c2N(Cc2ccc(Br)cc2)C1=O` (stereo not drawn): the IC50 is 3.3 µM.

Take `O=c1c2cc(Cl)ccc2nc(-c2ccc([N+](=O)[O-])cc2)n1O`: the IC50 is 2.7 µM.

`O=C(NCCC1=CCCCC1)c1c(O)nc2sccn2c1=O`: the IC50 was 2.24 µM.

For `CCCCCNC(=O)C(=O)C1C(=O)Nc2ccccc21` (stereo not drawn), the concentration for half-maximal inhibition (IC50) was 1.78 µM.

On to `O=C(Nc1scc(-c2ccccc2)c1C(=O)O)c1ccc(F)cc1`, for which the concentration for half-maximal inhibition (IC50) is 4.03 µM.

`CCCC1CCC(c2ccc(OCC)cc2)=CC1=O` (stereo not drawn): the IC50 is 4.85 µM.

Turning to `COc1cc(CNCCc2ccccc2)ccc1OCc1ccc(Cl)nc1`, the IC50 is 4.86 µM.

Regarding `CCN(CC)c1ccc2nc3ccc(N)cc3[n+](-c3ccccc3)c2c1`, the IC50 is 1.08 µM.

For the molecule `c1ccc(Sc2cccc3ccccc23)c(CNC2=NCCN2)c1`, the concentration for half-maximal inhibition (IC50) was 7.62 µM.

As for `O=c1c2ccc(Cl)cc2nc(-c2cccc(C(F)(F)F)c2)n1O`, the IC50 was 2.67 µM.

Consider `N#Cc1ccc(NC(=O)Nc2ccc(Cl)cc2)cc1`, for which the IC50 is 2.98 µM.

`Cc1cccc(C(=O)O/N=C(\N)Cc2cccc3ccccc23)c1`: the half-inhibitory concentration (IC50) is 1.72 µM.

In the case of `Cn1c(=O)c(C(=O)NNC(=O)c2ccccc2F)c(O)c2ccccc21`, the half-maximal inhibitory concentration (IC50) was 1.56 µM.

Consider `CC(=O)N(/N=C1\Sc2ccccc2C1=O)c1ccccc1C`, for which the IC50 is 4.55 µM.

Take `O=C(CCS(=O)(=O)c1ccccc1)N(CCCN1CCOCC1)c1nc2c(F)cccc2s1`: the IC50 was 1.05 µM.
